From patent publication EP0044443A1, “Cycloalkano-thiazolyloxamidic-acid derivatives, process for their preparation and pharmaceutical compositions containing them” (BASF Aktiengesellschaft, priority 1980, dated 1982)

What was measured:
[1] = tested on: passiven cutanen Anaphylaxie (PCA); assay: Passive cutaneous anaphylaxis (PCA) in rats sensitised with ovalbumin antiserum; assay type: in vivo, Ratte; settings: for ED50: Rattus norvegicus, dose reducing diameter of dye spots by 50 % vs untreated controls, read-out: Hemmung der PCA Ratte ED 50 %; for ED50 / Hemmung der PCA Ratte R.W. (Relative Wirksamkeit) / mal wirksamer als die Vergleichsverbindung V1: oral administration; for inhibition in vivo at 1 mg/kg: ip, read-out: % Hemmung X ± SX; for inhibition in vivo at 1 mg/kg / % Hemmung X ± SX: intraperitoneal, 1 mg/kg test substance, mean ± SX; for Hemmung der PCA Ratte R.W. (Relative Wirksamkeit): relative to V1 = 1,00
Procedure: Die antiallergische Wirkung wurde an Ratten getestet. Zur ' Prüfung wurde das Modell der passiven cutanen Anaphylaxie (PCA) verwendet.
Narkotisierte männliche Ratten (100 bis 140 g) werden durch intradermale Injektion (rasierte Rückenhaut) von 0,1 ml eines Ovalbumin-Antiserums sensibilisiert. Nach einer Sensibilisierungsperiode von ca. 48 Stunden erfolgt die Behandlung (intraperitoneale bzw. orale Applikation) mit unterschiedlichen Dosierungen (10 Tiere/Dosis) der Prüfsubstanzen. 15 bis 20 Minuten nach der Behandlung wird eine Antigen/Evansblau-Hischung (10 mg/kg Ovalbumin in 2 %iger Evansblau-Lösung) den Versuchstieren intravenös injiziert. 30 Minuten später werden die Tiere getötet, die Rückenhaut abgezogen und auf der inneren Oberfläche der Durchmesser der kreisförmigen Blaufärbung gemessen. Die Größe der Farbflecke unbehandelter Kontrolltiere ist standardisierbar. Antiallergisch wirksame Substanzen verkleinern dosisabhängig den Durchmesser der Farbflecke. Als ED 50 % wird die Dosis angegeben die im Vergleich zu medikamentös unbehandelten Kontrolltieren den Durchmesser der Farbflecke um 50 % herabsetzt.

[2] = Acute toxicity, mouse, intraperitoneal; settings: in vivo, ip, read-out: LD 50 Maus i.p.
From the text: (§1) Außer der antiallergischen Wirkung wurde die akute Toxizität an Gruppen von je 2 NMRI-Mäusen, Gewicht 20 bis 26 g, bei intraperitonealer Applikation und an je 2 Sprangue--Dawley-Ratten, Gewicht 120 bis 150 g, bei oraler Applikation ermittelt. Die Bestimmung der LD 50 erfolgte an Gruppen von je 10 NMRI-Mäusen, Gewicht 20 bis 26 g,nach intraperitonealer Applikation. Die Nachbeobachtungszeit betrug 14 Tage.

[3] = Acute toxicity, rat, oral; settings: in vivo, read-out: LD 50 Ratte p.o.
From the text: as §1

[4] = Water solubility (remark in synthesis example); assay type: physicochemical
[5] = NMRI mice, intraperitoneal, 14 days observation
[6] = Sprague-Dawley rats, oral, 14 days observation

| Compound | ED50 [1] [mg/kg] | inhibition in vivo at 1 mg/kg ([1]; PCA rat) [%] | Hemmung der PCA Ratte R.W. (Relative Wirksamkeit) [1] | LD50 at 336 h [3, 6] [mg/kg] | further results |
| --- | --- | --- | --- | --- | --- |
| CCOC(=O)C(=O)Nc1nc2c(s1)CCC2 [Beispiel 1, N-(Cyclopentano[1,2-d]thiazol-2-yl)-oxamidsäureethylester] | 1.59 | 25 ± 4.7 | 5,40 | > 2150 | LD50 at 336 h [2, 5]: ~464 mg/kg |
| CCOC(=O)C(=O)Nc1nc2c(s1)CCCC2 [Beispiel 2, N-(Cyclohexano[1,2-d]thiazol-2-yl)-oxamidsäureethylester] |  | 61 ± 8.8 | 11,90 |  | mal wirksamer als die Vergleichsverbindung V1 ([1]; PCA rat): 11.9; LD50 at 336 h [2]: 422 mg/kg; LD50 at 336 h ([3]; po): > 2150 mg/kg |
| CCOC(=O)C(=O)Nc1nc2c(s1)C(C)(C)CC(C)(C)C2 [Beispiel 4, N-(5,5,7,7-Tetramethylcyclohexano[1,2-d]thiazol-2-yl)-oxamidsäureethylester] |  | 15 ± 3.5 |  |  |  |
| CCOC(=O)C(=O)Nc1nc2c(s1)CCCCC2 [Beispiel 5, N-(Cycloheptano[1,2-d]thiazol-2-yl)oxamidsäureethylester] |  | 34 ± 6 |  |  |  |
| O=C(O)C(=O)Nc1nc2c(s1)CCCC2 [Beispiel 6, N-(Cyclohexano[1,2-d]thiazol-2-yl)-oxamidsäure] | 3.09 | 63 ± 6.6 | 2,78 |  | mal wirksamer als die Vergleichsverbindung V1 ([1]; PCA rat): 2,8; LD50 at 336 h [2]: ~464 mg/kg; LD50 at 336 h ([3]; po): > 2150 mg/kg |
| CC(C)(C)OC(=O)C(=O)Nc1nc2c(s1)CCCC2 [Beispiel 7] | 2.35 | 33 ± 7.9 | 3,65 | > 2150 |  |
| O=C(O)c1cc(=O)c2c(OCC(O)COc3cccc4oc(C(=O)O)cc(=O)c34)cccc2o1 [Cromolyne, reference compound] | 100 | 21 ± 3.6 |  | > 2150 | antiallergische Wirkung nach oraler Applikation ([1]; PCA rat, up to 100 mg/kg p.o.): unwirksam |
| CCOC(=O)C(=O)Nc1nc2ccccc2s1 [V1, N-Benzthiazol-2-yl-oxamidsäureethylester, reference compound] | 8.6 | 26 ± 6.5 | 1,00 | > 2150 | LD50 at 336 h [2, 5]: ~464 mg/kg |
| N-(6-tert.-Butylcyclohexano[1,2-d]thiazol-2-yl)-oxamidsäureethylester [Beispiel 3] |  |  |  |  | % Hemmung X ± SX ([1]; PCA rat): 14 ± 4,1% |
| N-(Cyclohexano[1,2-d]thiazol-2-yl)-oxamidsäure-ethanol- aminsalz [Beispiel 8] |  |  |  |  | % Hemmung X ± SX ([1]; PCA rat): 73 ± 7,5%; Wasserlöslichkeit [4]: gut wasserlöslichen |
